Values after ≈ are worked out from the molar mass of the structure shown. Active and inactive are the calls of the source. The rule behind the calls is not given here.

Holding throughout (type): functional
Assay [1] deals with Streptococcus pneumoniae. Kind of assay: Antibacterial activity against erythromycin-resistant mef expressing Streptococcus pneumoniae 1175.
Assay [2] deals with Streptococcus pyogenes. Briefly: Antibacterial activity against erythromycin-resistant ermB expressing Streptococcus pyogenes 1079.
Assay [3] relates to Haemophilus influenzae. Kind of assay: Antibacterial activity against Haemophilus influenzae 1100 in po dosed gerbils.
Assay [4] has as its system Streptococcus pneumoniae. Briefly: Antibacterial activity against erythromycin-resistant ermB expressing Streptococcus pneumoniae 1095.
The subject of assay [5] is Streptococcus pneumoniae. Kind of assay: Protection against erythromycin-resistant Streptococcus pneumoniae 1095 infection in po dosed mouse after 4 days.
For assay [6], the system named is Streptococcus pyogenes. Kind of assay: Antibacterial activity against erythromycin-resistant Streptococcus pyogenes 1068 in mouse soft tissue infection model assessed as reduction in bacterial count at 100 mg/kg, po after 24 hrs.
In assay [7] the test system is Haemophilus influenzae. Briefly: Antimicrobial activity against Haemophilus influenzae 1325.
Setting [8] is: Streptococcus pneumoniae, read-out: MIC.

The term ED50 denotes the dose at which the effect has come halfway, by size or by number of responders. Read a high ED50 as weaker potency. For the compound `CC[C@H]1OC(=O)[C@@](C)(F)C(=O)[C@H](C)[C@@H](O[C@@H]2O[C@H](C)C[C@H](N(C)C)[C@H]2O)[C@](C)(OC)C[C@@H](C)C(=O)[C@H](C)[C@H]2N(CNC(=O)OCc3ccc4nccnc4c3)C(=O)O[C@]12C`, the MIC in assay [1] was less than 0.063 µg/mL; in assay [2], 1 µg/mL (≈ 1.18 µM); in assay [4] (setting [8]), less than 0.063 µg/mL; in assay [7] it was 2 µg/mL (≈ 2.36 µM). The compound further had an ED50 in assay [3] of 39.5 mg/kg. Besides, the PD50 in assay [5] turned out to be 71.2 mg/kg. Further, the Log10 cfu in assay [6] is 2.3.

Take `CC[C@H]1OC(=O)[C@@](C)(F)C(=O)[C@H](C)[C@@H](O[C@@H]2O[C@H](C)C[C@H](N(C)C)[C@H]2O)[C@](C)(OC)C[C@@H](C)C(=O)[C@H](C)[C@H]2N(CNC(=O)NCc3ccc4nccnc4c3)C(=O)O[C@]12C`: the MIC in assay [1] was less than 0.063 µg/mL; in assay [2] it was 1 µg/mL (≈ 1.18 µM); in assay [4] (setting [8]), less than 0.063 µg/mL; in assay [7], 1 µg/mL (≈ 1.18 µM).

For the compound `CC[C@H]1OC(=O)[C@H](C)C(=O)[C@H](C)[C@@H](O[C@@H]2O[C@H](C)C[C@H](N(C)C)[C@H]2O)[C@](C)(OC)C[C@@H](C)C(=O)[C@H](C)[C@H]2N(CNC(=O)NCc3ccc4ncccc4c3)C(=O)O[C@]12C`, the MIC amounted to 0.125 µg/mL (≈ 0.151 µM) in assay [1], 4 µg/mL (≈ 4.84 µM) in assay [2], 0.25 µg/mL (≈ 0.303 µM) in assay [4] (setting [8]) and 1 µg/mL (≈ 1.21 µM) in assay [7].

As for `CC[C@H]1OC(=O)[C@H](C)C(=O)[C@H](C)[C@@H](O[C@@H]2O[C@H](C)C[C@H](N(C)C)[C@H]2O)[C@](C)(OC)C[C@@H](C)C(=O)[C@H](C)[C@H]2N(CNC(=O)OCc3ccnc4ccccc34)C(=O)O[C@]12C`, the MIC was less than 0.063 µg/mL in assay [1], 64 µg/mL (≈ 77.4 µM) in assay [2], 0.5 µg/mL (≈ 0.605 µM) in assay [4] (setting [8]) and 8 µg/mL (≈ 9.67 µM) in assay [7].

Turning to `CC[C@H]1OC(=O)[C@H](C)C(=O)[C@H](C)[C@@H](O[C@@H]2O[C@H](C)C[C@H](N(C)C)[C@H]2O)[C@](C)(OC)C[C@@H](C)C(=O)[C@H](C)[C@H]2N(CNC(=O)OCc3ccc4ncccc4c3)C(=O)O[C@]12C`, the MIC was less than 0.063 µg/mL in assay [1], 8 µg/mL (≈ 9.67 µM) in assay [2], 0.25 µg/mL (≈ 0.302 µM) in assay [4] (setting [8]) and 2 µg/mL (≈ 2.42 µM) in assay [7].

For the compound `CC[C@H]1OC(=O)[C@@](C)(F)C(=O)[C@H](C)[C@@H](O[C@@H]2O[C@H](C)C[C@H](N(C)C)[C@H]2O)[C@](C)(OC)C[C@@H](C)C(=O)[C@H](C)[C@H]2N(CNC(=O)OCc3cccc4nccnc34)C(=O)O[C@]12C`, the MIC in assay [1] is less than 0.063 µg/mL; in assay [2], 22.6 µg/mL (≈ 26.7 µM); in assay [4] (setting [8]) it was less than 0.063 µg/mL; in assay [7], 4 µg/mL (≈ 4.73 µM).

As for `CC[C@H]1OC(=O)[C@H](C)C(=O)[C@H](C)[C@@H](O[C@@H]2O[C@H](C)C[C@H](N(C)C)[C@H]2O)[C@](C)(OC)C[C@@H](C)C(=O)[C@H](C)[C@H]2N(CCCCn3cnc(-c4cccnc4)c3)C(=O)O[C@]12C` [TELITHROMYCIN], the MIC was 0.378 µg/mL (≈ 0.466 µM) in assay [1], 18 µg/mL (≈ 22.2 µM) in assay [2], less than 0.063 µg/mL in assay [4] (setting [8]) and 3.9 µg/mL (≈ 4.8 µM) in assay [7]. For the same compound, in assay [3], the ED50 was determined as 27.5 mg/kg. For the same compound, in assay [5], the PD50 stood at 71.5 mg/kg. The result in assay [6] was inactive.

For the compound `CC[C@H]1OC(=O)[C@H](C)C(=O)[C@H](C)[C@@H](O[C@@H]2O[C@H](C)C[C@H](N(C)C)[C@H]2O)[C@](C)(OC)C[C@@H](C)C(=O)[C@H](C)[C@H]2N(CNC(=O)NCc3cnc4ccccc4n3)C(=O)O[C@]12C`, the MIC in assay [1] is 0.25 µg/mL (≈ 0.302 µM); in assay [2] it was more than 64 µg/mL; in assay [4] (setting [8]), less than 0.063 µg/mL; in assay [7] it was 4 µg/mL (≈ 4.84 µM).

On to `CC[C@H]1OC(=O)[C@H](C)C(=O)[C@H](C)[C@@H](O[C@@H]2O[C@H](C)C[C@H](N(C)C)[C@H]2O)[C@](C)(OC)C[C@@H](C)C(=O)[C@H](C)[C@H]2N(CNC(=O)OCc3cccc4ncccc34)C(=O)O[C@]12C`, for which the MIC in assay [1] was determined as 0.125 µg/mL (≈ 0.151 µM); in assay [2], 16 µg/mL (≈ 19.3 µM); in assay [4] (setting [8]) it was 0.125 µg/mL (≈ 0.151 µM); in assay [7] it was 32 µg/mL (≈ 38.7 µM).

`CC[C@H]1OC(=O)[C@H](C)C(=O)[C@H](C)[C@@H](O[C@@H]2O[C@H](C)C[C@H](N(C)C)[C@H]2O)[C@](C)(OC)C[C@@H](C)C(=O)[C@H](C)[C@H]2N(CNC(=O)Nc3cnc4ccccc4c3)C(=O)O[C@]12C`: the MIC was less than 0.063 µg/mL in assay [1], more than 64 µg/mL in assay [2], 0.25 µg/mL (≈ 0.308 µM) in assay [4] (setting [8]) and 16 µg/mL (≈ 19.7 µM) in assay [7].

For `CC[C@H]1OC(=O)[C@H](C)C(=O)[C@H](C)[C@@H](O[C@@H]2O[C@H](C)C[C@H](N(C)C)[C@H]2O)[C@](C)(OC)C[C@@H](C)C(=O)[C@H](C)[C@H]2N(CCNC(=O)OCc3cnc4ccccc4c3)C(=O)O[C@]12C`, the MIC in assay [1] is 0.125 µg/mL (≈ 0.149 µM); in assay [2], more than 64 µg/mL; in assay [4], more than 64 µg/mL; in assay [7], 32 µg/mL (≈ 38 µM).

On to `CC[C@H]1OC(=O)[C@H](C)C(=O)[C@H](C)[C@@H](O[C@@H]2O[C@H](C)C[C@H](N(C)C)[C@H]2O)[C@](C)(OC)C[C@@H](C)C(=O)[C@H](C)[C@H]2N(CNC(=O)NCc3ccc4cccnc4c3)C(=O)O[C@]12C`, for which the MIC in assay [1] is 0.5 µg/mL (≈ 0.605 µM); in assay [2], 64 µg/mL (≈ 77.5 µM); in assay [4] (setting [8]), less than 0.063 µg/mL; in assay [7] it was 4 µg/mL (≈ 4.84 µM).

For `CC[C@H]1OC(=O)[C@H](C)C(=O)[C@H](C)[C@@H](O[C@@H]2O[C@H](C)C[C@H](N(C)C)[C@H]2O)[C@](C)(OC)C[C@@H](C)C(=O)[C@H](C)[C@H]2N(CNC(=O)OCc3ccc4cccnc4c3)C(=O)O[C@]12C`, the MIC was less than 0.063 µg/mL in assay [1], 64 µg/mL (≈ 77.4 µM) in assay [2], less than 0.063 µg/mL in assay [4] (setting [8]) and 4 µg/mL (≈ 4.84 µM) in assay [7].

With `CC[C@H]1OC(=O)[C@H](C)C(=O)[C@H](C)[C@@H](O[C@@H]2O[C@H](C)C[C@H](N(C)C)[C@H]2O)[C@](C)(OC)C[C@@H](C)C(=O)[C@H](C)[C@H]2N(CNC(=O)OCc3ccc4nccnc4c3)C(=O)O[C@]12C`, the MIC in assay [1] was less than 0.063 µg/mL; in assay [2] it was 16 µg/mL (≈ 19.3 µM); in assay [4] (setting [8]), less than 0.063 µg/mL; in assay [7], 2 µg/mL (≈ 2.42 µM).

For `CC[C@H]1OC(=O)[C@H](C)C(=O)[C@H](C)[C@@H](O[C@@H]2O[C@H](C)C[C@H](NC)[C@H]2O)[C@](C)(OC)C[C@@H](C)C(=O)[C@H](C)[C@H]2N(CNC(=O)OCc3cnc4ccccc4c3)C(=O)O[C@]12C`, the MIC in assay [1] was less than 0.063 µg/mL; in assay [2], 64 µg/mL (≈ 78.7 µM); in assay [4] (setting [8]), less than 0.063 µg/mL; in assay [7] it was 8 µg/mL (≈ 9.84 µM).

For the compound `CC[C@H]1OC(=O)[C@H](C)C(=O)[C@H](C)[C@@H](O[C@@H]2O[C@H](C)C[C@H](N(C)C)[C@H]2O)[C@](C)(OC)C[C@@H](C)C(=O)[C@H](C)[C@H]2N(CNC(=O)OCc3cnc4ccccc4n3)C(=O)O[C@]12C`, the MIC is 0.25 µg/mL (≈ 0.302 µM) in assay [1], more than 64 µg/mL in assay [2], 0.25 µg/mL (≈ 0.302 µM) in assay [4] (setting [8]) and 8 µg/mL (≈ 9.66 µM) in assay [7].

In the case of `CC[C@H]1OC(=O)[C@H](C)C(=O)[C@H](C)[C@@H](O[C@@H]2O[C@H](C)C[C@H](N(C)C)[C@H]2O)[C@](C)(OC)C[C@@H](C)C(=O)[C@H](C)[C@H]2N(CNC(=O)NCc3ccc4nccnc4c3)C(=O)O[C@]12C`, the MIC is 0.25 µg/mL (≈ 0.302 µM) in assay [1], 2 µg/mL (≈ 2.42 µM) in assay [2], less than 0.063 µg/mL in assay [4] (setting [8]) and 2 µg/mL (≈ 2.42 µM) in assay [7].

As for `CC[C@H]1OC(=O)[C@H](C)C(=O)[C@H](C)[C@@H](O[C@@H]2O[C@H](C)C[C@H](N(C)C)[C@H]2O)[C@](C)(OC)C[C@@H](C)C(=O)[C@H](C)[C@H]2N(CNC(=O)NCc3cncc4ccccc34)C(=O)O[C@]12C`, the MIC in assay [1] was less than 0.063 µg/mL; in assay [2] it was 16 µg/mL (≈ 19.4 µM); in assay [4] (setting [8]), less than 0.063 µg/mL; in assay [7], 4 µg/mL (≈ 4.84 µM).

As to `CC[C@H]1OC(=O)[C@H](C)C(=O)[C@H](C)[C@@H](O[C@@H]2O[C@H](C)C[C@H](N(C)C)[C@H]2O)[C@](C)(OC)C[C@@H](C)C(=O)[C@H](C)[C@H]2N(CCNC(=O)NCc3cnc4ccccc4c3)C(=O)O[C@]12C`, the MIC in assay [1] is 0.5 µg/mL (≈ 0.595 µM); in assay [2] it was more than 64 µg/mL; in assay [4] (setting [8]), more than 64 µg/mL; in assay [7], 16 µg/mL (≈ 19 µM).

(Values after ChEMBL document CHEMBL1149685, “Novel tethers in ketolide antibiotics” (2007).)
